Results: US20260083759A1, “Combinations Comprising Psychedelics for the Treatment of Schizophrenia and Other Neuropsychiatric and Neurologic Disorders” (HADASIT MEDICAL RESEARCH SERVICES AND DEVELOPMENT LTD, priority 2022, published 2026)

Legend:
male ICR mice = experiment: Head twitch response (HTR) induced by psilocybin in mice; type: in vivo
Text: The head twitch response (HTR) induced by serotonergic psychedelic agents such as psilocybin (PSIL) in rodents, is a characteristic behavioral effect mediated by cortical 5-HT2A receptors that is highly correlated with the psychedelic trip induced by these agents in humans.
In order to determine whether the negative effects such as HTR could be blocked in schizophrenic patients administered psilocybin (PSIL) (which ordinarily would produce “trip-induced effects”) upon further receiving clozapine (CLZ), the effect of concurrent CLZ treatment in blocking the HTR-inducing effect of PSIL in mice was examined.
Toward this end, male ICR mice (aged 8 weeks) were implanted with mini car-magnets and were administered the following treatments intraperitoneally (i.p.): • 1. CLZ at a dosage of 1 or 2 mg/kg weight; • 2. PSIL at a dosage of 4.4 mg/kg weight; • 3. CLZ at a dosage of 1 mg/kg weight and PSIL at a dosage of 4.4 mg/kg weight; • 4. CLZ at a dosage of 2 mg/kg weight and PSIL at a dosage of 4.4 mg/kg weight; and • 5. Vehicle (Saline) controls.
CLZ was administered 30 minutes before PSIL. All injection volumes were identical. HTR was assessed in up to 6 mice simultaneously over a 20-minute period using a purpose-built magnetometer and custom software. Experiments were approved by the Authority for Biological and Biomedical Models, Hebrew University
To further extend these studies, it was of interest to determine the HTR effects induced by Psilocybin when mice were pre-administered D-Serine 3000 mg/kg, as opposed to CLZ (FIG. 2A), or D-Serine 1500 mg/kg, as opposed to CLZ (FIG. 2B).

Synaptophysin = experiment: Western Blot of synaptic protein Synaptophysin in brain regions, 7 days post-administration; type: in vivo, mice
Protocol: (§1) Specifically, ICR mice were administered a single intra-peritoneal injection of psilocybin at a dosage of 4.4 mg/kg, D-Serine at a dosage of 3 g/kg, a combined psilocybin dosage of 4.4 mg/kg+D-Serine dosage of 3 g/kg and compared to control animals (administered a saline vehicle). 7 days post-administration, animals were harvested, and individual brain regions were dissected, homogenized and processed for Western Blot analysis, probing for GAP43, Synaptophysin and SV2A protein expression, using commercially available reagents (Abcam).
(§2) Animals injected with PSIL or D-SER or the combination of the two were specifically probed for changes in synaptic protein expression, for proteins that are pivotally involved in neuroplasticity of the brain, focusing on 4 key regions: the brain frontal cortex, hippocampus, amygdala and striatum.
(§3) In order to comparatively assess all the effects of individual DSER or PSIL and combined DSER and PSIL administration on each brain region, a nested analysis of variance in which the level each of the synaptic proteins was compared to controls was assessed across the four brain regions frontal cortex, hippocampus, amygdala and striatum (FIG. 6).

GAP43 = experiment: Western Blot of synaptic protein GAP43 in brain regions, 7 days post-administration; type: in vivo, mice; conditions: for GAP43 protein levels: single i.p. injection (psilocybin 4.4 mg/kg, D-Serine 3 g/kg or both), 7 days post-administration, vs saline controls (FIG. 4)
Protocol: as §1, §2, §3

SV2A = experiment: Western Blot of synaptic protein SV2A in brain regions, 7 days post-administration; type: in vivo, mice; conditions: hippocampus; single i.p. injection (D-Serine 3 g/kg or with psilocybin 4.4 mg/kg); 7 days post-administration (FIG. 5)
Protocol: as §1, §2, §3

ICR mice = experiment: MK-801 induced hyperactivity in the open field; type: in vivo; conditions: MK-801 0.1 mg/kg i.p. immediately before open field for one hour (FIG. 3A)
Protocol: Hyperactivity induced in rodents by the NMDA receptor antagonist, MK-801, is a key rodent pharmacological model of acute psychotic features in humans.
Drugs which induce psychosis in humans enhance MK-801 induced hyperactivity in rodents while antipsychotic drugs reduce or block the effect.
In order to determine the interactive effects of PSIL and CLZ, a murine model was used where MK-801 induced hyperactivity, was assessed, which serves as a surrogate system for psychotic symptoms in schizophrenia patients.
Toward this end PSIL and CLZ alone and in combination were evaluated for their effects on MK-801 induced hyperactivity in […].
ICR mice were administered MK-801 intra-peritoneally, at a dose of 0.1 mg/kg immediately before they were placed in an open field for one hour. 30 minutes prior to administration of MK-801, mice were pretreated as follows: • 1. PSIL at a dosage of 4.4 mg/kg; • 2. CLZ at a dosage of 1.0 mg/kg; • 3. PSIL at a dosage of 4.4 mg/kg and CLZ at a dosage of 1.0 mg/kg; • 4. D-Serine (DSR) at a dosage of 3000 mg/kg; • 5. D-cycloserine (DCS) at a dosage of 320 mg/kg; • 6. […]
Activity in the open field was monitored by an overhead camera and was recorded by a Noldus Ethovision apparatus. […] Distance moved/travelled in the open field, center duration and center frequency were evaluated in the open field arena.

[1] = across the four brain regions frontal cortex, hippocampus, amygdala and striatum, 7 days post-administration (FIG. 6)

N[C@H](CO)C(=O)O [D-Serine]
PSIL-mediated increased HTR (male ICR mice; D-Serine 3000 mg/kg (FIG. 2A) or 1500 mg/kg (FIG. 2B) pre-administered before Psilocybin): significantly reduced | HTR (male ICR mice; DSR alone): did not affect HTR | PSIL-mediated HTR over time (male ICR mice; lower D-serine dose with PSIL (FIG. 2C)): consistent over time | Synaptophysin expression, nested analysis of variance compared to controls (Synaptophysin; [1]): increasing levels | synaptophysin protein expression (Synaptophysin; frontal cortex, single i.p. injection D-Serine 3 g/kg, 7 days post-administration (FIG. 5)): increased | GAP43 levels, nested analysis of variance compared to controls (GAP43; [1]): increase | GAP43 protein levels (GAP43; amygdala): significantly increased | GAP43 protein levels (GAP43; frontal cortex): significantly increased | SV2A expression (SV2A): increased

N[C@@H]1CONC1=O [DCS, D-cycloserine]
HTR (male ICR mice; DCS alone): did not affect HTR | PSIL-mediated increased HTR over time (male ICR mice; plotted for up to 30 minutes, DCS at doses of over 320 mg/kg with PSIL (FIG. 2E)): rapid abrogation

C[C@]12N[C@H](Cc3ccccc31)c1ccccc12 [MK-801]
distance travelled in the open field (ICR mice): marked movement
